Results as given in PubChem BioAssay AID1963958 (Molecular Pharmacology Branch, DTP, NCI, 2024).

Test system: MDA-MB-231 multicell spheroids, viability
Test: Anticancer human tumor MDA-MB-231 cell line growth inhibition [PI3K];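 also: spheroids exposed to agents for seven days before reading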;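 as to viability, T/C: percent of vehicle control luminescence with DMSO treated spheroids as 100%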
Settings: for IC50: curve of first compound; for viability, T/C: stronger effect = lower value
Method in brief: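 High-throughput combination screen: PI3K inhibitors crossed with targeted small molecules on complex spheroids of tumor cells, HUVEC and MSCs at 37 degrees C, 5% CO2. Top concentration was at or near clinical Cmax (otherwise 10 microM), with half-log decrements.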

[1] = second compound 0.0316 µM, first compound 0.0316 µM
[2] = second compound 0.0316 µM, first compound 0.1 µM
[3] = second compound 0.0316 µM, first compound 0.316 µM
[4] = second compound 0.0316 µM, first compound 1 µM
[5] = second compound 0.0316 µM, first compound 3.16 µM
[6] = second compound 0.0316 µM, first compound 10 µM
[7] = second compound 0.1 µM, first compound 0.0316 µM
[8] = second compound 0.1 µM, first compound 0.1 µM
[9] = second compound 0.1 µM, first compound 0.316 µM
[10] = second compound 0.1 µM, first compound 1 µM
[11] = second compound 0.1 µM, first compound 3.16 µM
[12] = second compound 0.1 µM, first compound 10 µM
[13] = second compound 0.316 µM, first compound 0.0316 µM
[14] = second compound 0.316 µM, first compound 0.1 µM
[15] = second compound 0.316 µM, first compound 0.316 µM
[16] = second compound 0.316 µM, first compound 1 µM
[17] = second compound 0.316 µM, first compound 3.16 µM
[18] = second compound 0.316 µM, first compound 10 µM
[19] = second compound 1 µM, first compound 0.0316 µM
[20] = second compound 1 µM, first compound 0.1 µM
[21] = second compound 1 µM, first compound 0.316 µM
[22] = second compound 1 µM, first compound 1 µM
[23] = second compound 1 µM, first compound 3.16 µM
[24] = second compound 1 µM, first compound 10 µM
[25] = second compound 3.16 µM, first compound 0.0316 µM
[26] = second compound 3.16 µM, first compound 0.1 µM
[27] = second compound 3.16 µM, first compound 0.316 µM
[28] = second compound 3.16 µM, first compound 1 µM
[29] = second compound 3.16 µM, first compound 3.16 µM
[30] = second compound 3.16 µM, first compound 10 µM
[31] = second compound 10 µM, first compound 0.0316 µM
[32] = second compound 10 µM, first compound 0.1 µM
[33] = second compound 10 µM, first compound 0.316 µM
[34] = second compound 10 µM, first compound 1 µM
[35] = second compound 10 µM, first compound 3.16 µM
[36] = second compound 10 µM, first compound 10 µM

C=CC(=O)N1CCN(c2nc(=O)n(-c3c(C)ccnc3C(C)C)c3nc(-c4c(O)cccc4F)c(F)cc23)C(C)C1 (centres undefined) + CC(Nc1ncnc2nc[nH]c12)c1cc2cccc(Cl)c2c(=O)n1-c1ccccc1
IC50 (second compound 0.0316 µM): > 10 µM
IC50 (second compound 0.1 µM): > 10 µM
IC50 (second compound 0.316 µM): > 10 µM
IC50 (second compound 1 µM): > 10 µM
IC50 (second compound 3.16 µM): > 10 µM
IC50 (second compound 10 µM): > 10 µM
viability, T/C [1]: 104%
viability, T/C [2]: 110%
viability, T/C [3]: 115%
viability, T/C [4]: 134%
viability, T/C [5]: 131%
viability, T/C [6]: 118%
viability, T/C [7]: 111%
viability, T/C [8]: 103%
viability, T/C [9]: 113%
viability, T/C [10]: 132%
viability, T/C [11]: 131%
viability, T/C [12]: 118%
viability, T/C [13]: 101%
viability, T/C [14]: 98.7%
viability, T/C [15]: 111%
viability, T/C [16]: 115%
viability, T/C [17]: 133%
viability, T/C [18]: 114%
viability, T/C [19]: 86.9%
viability, T/C [20]: 90.1%
viability, T/C [21]: 95.7%
viability, T/C [22]: 106%
viability, T/C [23]: 108%
viability, T/C [24]: 96%
viability, T/C [25]: 66.5%
viability, T/C [26]: 70.9%
viability, T/C [27]: 73.5%
viability, T/C [28]: 79.5%
viability, T/C [29]: 88.2%
viability, T/C [30]: 78.4%
viability, T/C [31]: 51%
viability, T/C [32]: 52.5%
viability, T/C [33]: 55.5%
viability, T/C [34]: 59%
viability, T/C [35]: 58.5%
viability, T/C [36]: 54.6%

CC(Cn1ccc(-c2ccc(C#N)c(Cl)c2)n1)NC(=O)c1cc(C(C)O)[nH]n1 (centres undefined) + CC(Nc1ncnc2nc[nH]c12)c1cc2cccc(Cl)c2c(=O)n1-c1ccccc1
IC50 (second compound 0.0316 µM): > 10 µM
IC50 (second compound 0.1 µM): > 10 µM
IC50 (second compound 0.316 µM): > 10 µM
IC50 (second compound 1 µM): > 10 µM
IC50 (second compound 3.16 µM): > 10 µM
IC50 (second compound 10 µM): < 0.0316 µM
viability, T/C [1]: 100%
viability, T/C [2]: 95.7%
viability, T/C [3]: 99.6%
viability, T/C [4]: 98.5%
viability, T/C [5]: 96%
viability, T/C [6]: 82.3%
viability, T/C [7]: 92.9%
viability, T/C [8]: 98.3%
viability, T/C [9]: 97.9%
viability, T/C [10]: 95.2%
viability, T/C [11]: 92.4%
viability, T/C [12]: 78.4%
viability, T/C [13]: 81.9%
viability, T/C [14]: 93%
viability, T/C [15]: 95%
viability, T/C [16]: 88.5%
viability, T/C [17]: 87.9%
viability, T/C [18]: 75.7%
viability, T/C [19]: 70.6%
viability, T/C [20]: 79.4%
viability, T/C [21]: 78.4%
viability, T/C [22]: 79.5%
viability, T/C [23]: 72.2%
viability, T/C [24]: 64.5%
viability, T/C [25]: 61.3%
viability, T/C [26]: 61%
viability, T/C [27]: 61.4%
viability, T/C [28]: 56.2%
viability, T/C [29]: 56.9%
viability, T/C [30]: 49.2%
viability, T/C [31]: 47%
viability, T/C [32]: 44.3%
viability, T/C [33]: 47.8%
viability, T/C [34]: 45.5%
viability, T/C [35]: 42%
viability, T/C [36]: 36%
